Patent publication US20230107642A1 (Erasca, Inc., priority 2020, published 2023)

The compounds below were run against T1, Cys12 of the KRAS 4B G12C protein (Homo sapiens, UniProt P01116, G12C) (assay: In vitro covalent adduct formation (CAF) assay, LC-MS intact mass). Details: 10 uM compound, 60 min incubation.
T1 construct: This protein contained 188 amino acids in total, including an N-terminal 6-Histidine tag; made in house; host or cells: E. coli BL21
Type: binding
Method in brief: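 Percent covalent modification from intact-mass LC-MS, by relative free versus adducted protein (adducts within 1 Da of expected mass). Reaction: 10 μM compound with 5 μM E. coli-expressed, GDP-exchanged KRAS 4B G12C in TBS pH 7.4, 4% DMSO, 1 h at 22° C.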

Row | SMILES | % CAF 10 uM @ 60 min [%]
1 | C=CC(=O)N1[C@H](C)CN(c2nc(=O)n3c4c(c(-c5cc(Cl)c(F)cc5F)c(C(F)(F)F)cc24)SC[C@H](N2CCOCC2)C3)C[C@@H]1C [Example 1105, (3R)-8-((3S,5R)-4-acryloyl-3,5-dimethylpiperazin-1-yl)-11-(5-chloro-2,4-difluorophenyl)-3-morpholino-10-(trifluoromethyl)-3,4-dihydro-2H,6H-[1,4]thiazepino [2,3,4-ij]quinazolin-6-one] | 95.6
2 | C=CC(=O)N1CCN(c2nc(=O)n3c4c(c(-c5ccc(F)cc5)c(C(F)(F)F)cc24)SC[C@@H]3COC)CC1 [Example 1106, (S)-7-(4-acryloylpiperazin-1-yl)-10-(4-fluorophenyl)-3-(methoxymethyl)-9-(trifluoromethyl)-2,3-dihydro-5H-[1,4]thiazino[2,3,4-ij]quinazolin-5-one] | 98.2
3 | C=CC(=O)N1C[C@H](C)N(c2nc(=O)n3c4c(c(-c5ccc(F)cc5)c(C(F)(F)F)cc24)SCC2(COC2)C3)C[C@H]1C [Example 1111, 8′-((2S,5R)-4-acryloyl-2,5-dimethylpiperazin-1-yl)-11′-(4-fluorophenyl)-10′-(trifluoromethyl)-2′H,4′H,6′H-spiro[oxetane-3,3′-[1,4]thiazepino [2,3,4-ij]quinazolin]-6′-one] | 95.4
4 | C=CC(=O)N1[C@H](C)CN(c2nc(=O)n3c4c(c(-c5ccc(F)cc5)c(C(F)(F)F)cc24)SC[C@H](N2CCOCC2)C3)C[C@@H]1C [Example 1112, (R)-8-((3S,5R)-4-acryloyl-3,5-dimethylpiperazin-1-yl)-11-(4-fluorophenyl)-3-morpholino-10-(trifluoromethyl)-3,4-dihydro-2H,6H-[1,4]thiazepino [2,3,4-ij]quinazolin-6-one] | 92.4
5 | C=CC(=O)N1[C@H](C)CN(c2nc(=O)n3c4c(c(-c5ccc(F)cc5F)c(Cl)cc24)SC[C@@H]3COC)C[C@@H]1C [Example 1113, (3S)-7-((3S,5R)-4-acryloyl-3,5-dimethylpiperazin-1-yl)-9-chloro-10-(2,4-difluorophenyl)-3-(methoxymethyl)-2,3-dihydro-5H-[1,4]thiazino[2,3,4-ij]quinazolin-5-one] | 96.8
6 | C=CC(=O)N1CCN(c2nc(=O)n3c4c(c(-c5ccc(F)cc5)c(C(F)(F)F)cc24)SCC2(COC2)C3)CC1 [Example 1116, 8′-(4-acryloylpiperazin-1-yl)-11′-(4-fluorophenyl)-10′-(trifluoromethyl)-2′H,4′H,6′H-spiro[oxetane-3,3′-[1,4]thiazepino [2,3,4-ij]quinazolin]-6′-one] | 98.4
7 | C=CC(=O)N1[C@H](C)CN(c2nc(=O)n3c4c(c(-c5ccc(F)cc5)c(C(F)(F)F)cc24)SCC2(COC2)C3)C[C@@H]1C [Example 1117, 8′-((3S,5R)-4-acryloyl-3,5-dimethylpiperazin-1-yl)-11′-(4-fluorophenyl)-10′-(trifluoromethyl)-2′H,4′H,6′H-spiro[oxetane-3,3′-[1,4]thiazepino [2,3,4-ij]quinazolin]-6′-one] | 96.9
8 | C=CC(=O)N1[C@H](C)CN(c2nc(=O)n3c4c(c(-c5ccc(F)cc5)c(C(F)(F)F)cc24)SC[C@H](N2CCCC2)C3)C[C@@H]1C [Example 1118, (R)-8-((3S,5R)-4-acryloyl-3,5-dimethylpiperazin-1-yl)-11-(4-fluorophenyl)-3-(pyrrolidin-1-yl)-10-(trifluoromethyl)-3,4-dihydro-2H,6H-[1,4]thiazepino [2,3,4-ij]quinazolin-6-one] | 95.7
9 | C=CC(=O)N1C[C@H](C)N(c2nc(=O)n3c4c(c(-c5cc(Cl)c(F)cc5F)c(C(F)(F)F)cc24)SCC2(COC2)C3)C[C@H]1C [Example 1122, 8′-((2S,5R)-4-acryloyl-2,5-dimethylpiperazin-1-yl)-11′-(5-chloro-2,4-difluorophenyl)-10′-(trifluoromethyl)-2′H,4′H,6′H-spiro[oxetane-3,3′-[1,4]thiazepino [2,3,4-ij]quinazolin]-6′-one] | 74.3
10 | C=CC(=O)N1CCN(c2nc(=O)n3c4c(c(-c5ccc(F)cc5F)c(C(F)(F)F)cc24)SCC2(COC2)C3)CC1 [Example 1123, 8′-(4-acryloylpiperazin-1-yl)-11′-(2,4-difluorophenyl)-10′-(trifluoromethyl)-2′H,4′H,6′H-spiro[oxetane-3,3′-[1,4]thiazepino [2,3,4-ij]quinazolin]-6′-one] | 95.2
11 | C=CC(=O)N1[C@H](C)CN(c2nc(=O)n3c4c(c(-c5cc(Cl)c(F)cc5F)c(C(F)(F)F)cc24)SC[C@H](N2CCCC2)C3)C[C@@H]1C [Example 1129, (3R)-8-((3S,5R)-4-acryloyl-3,5-dimethylpiperazin-1-yl)-11-(5-chloro-2,4-difluorophenyl)-3-(pyrrolidin-1-yl)-10-(trifluoromethyl)-3,4-dihydro-2H,6H-[1,4]thiazepino [2,3,4-ij]quinazolin-6-one] | 69
12 | C=CC(=O)N1[C@H](C)CN(c2nc(=O)n3c4c(c(-c5ccc(F)cc5)c(C(F)(F)F)cc24)SC[C@@H](N2CCOCC2)C3)C[C@@H]1C [Example 1134, (S)-8-((3S,5R)-4-acryloyl-3,5-dimethylpiperazin-1-yl)-11-(4-fluorophenyl)-3-morpholino-10-(trifluoromethyl)-3,4-dihydro-[1,4]thiazepino [2,3,4-ij]quinazolin-6(2H)-one] | 76.8

Same assay, conditions: 10 μM compound, after 1 hour

Row | SMILES | CAF (% after 1 hour) [%]
13 | O=C1CC2CN(c3nc(=O)n4c5c(c(-c6ccc(F)cc6F)c(C(F)(F)F)cc35)SCCC4)CC(C1)N2C(=O)/C=C/CF [Example 1200, (E)-11-(2,4-difluorophenyl)-8-(9-(4-fluorobut-2-enoyl)-7-oxo-3,9-diazabicyclo[3.3.1]nonan-3-yl)-10-(trifluoromethyl)-3,4-dihydro-2H,6H-[1,4]thiazepino[2,3,4-ij]quinazolin-6-one] | 73
14 | C=CC(=O)N1C[C@H](C)N(c2nc(=O)n3c4c(c(-c5ccc(F)c(Cl)c5)c(C(F)(F)F)cc24)SC[C@@H](OC)C3)C[C@H]1C [Example 1201, (S)-8-((2S,5R)-4-acryloyl-2,5-dimethylpiperazin-1-yl)-11-(3-chloro-4-fluorophenyl)-3-methoxy-10-(trifluoromethyl)-3,4-dihydro-2H,6H-[1,4]thiazepino[2,3,4-ij]quinazolin-6-one] | 96
15 | C=CC(=O)N1C[C@H](C)N(c2nc(=O)n3c4c(c(-c5ccc(F)cc5)c(C(F)(F)F)cc24)SC[C@@H](OC)C3)C[C@H]1C [Example 1202, (S)-8-((2S,5R)-4-acryloyl-2,5-dimethylpiperazin-1-yl)-11-(4-fluorophenyl)-3-methoxy-10-(trifluoromethyl)-3,4-dihydro-2H,6H-[1,4]thiazepino[2,3,4-ij]quinazolin-6-one] | 97
16 | C=CC(=O)N1[C@H](C)CN(c2nc(=O)n3c4c(c(-c5ccc(F)cc5)c(C(F)(F)F)cc24)SC[C@@H](OCC)C3)C[C@@H]1C [Example 1203, (S)-8-((3S,5R)-4-acryloyl-3,5-dimethylpiperazin-1-yl)-3-ethoxy-11-(4-fluorophenyl)-10-(trifluoromethyl)-3,4-dihydro-2H,6H-[1,4]thiazepino[2,3,4-ij]quinazolin-6-one] | 95
17 | C=CC(=O)N1[C@H](C)CN(c2nc(=O)n3c4c(c(-c5ccc(F)c(Cl)c5)c(C(F)(F)F)cc24)SC[C@@H](OCC)C3)C[C@@H]1C [Example 1204, (S)-8-((3S,5R)-4-acryloyl-3,5-dimethylpiperazin-1-yl)-11-(3-chloro-4-fluorophenyl)-3-ethoxy-10-(trifluoromethyl)-3,4-dihydro-2H,6H-[1,4]thiazepino[2,3,4-ij]quinazolin-6-one] | 95
18 | C=CC(=O)N1[C@H](C)CN(c2nc(=O)n3c4c(c(-c5ccc(F)cc5F)c(C(F)(F)F)cc24)SC[C@@H](OCC)C3)C[C@@H]1C [Example 1205, (3S)-8-((3S,5R)-4-acryloyl-3,5-dimethylpiperazin-1-yl)-11-(2,4-difluorophenyl)-3-ethoxy-10-(trifluoromethyl)-3,4-dihydro-2H,6H-[1,4]thiazepino[2,3,4-ij]quinazolin-6-one] | 95
19 | C=CC(=O)N1[C@H](C)CN(c2nc(=O)n3c4c(c(-c5cc(Cl)c(F)cc5F)c(C(F)(F)F)cc24)SC[C@@H](OCC)C3)C[C@@H]1C [Example 1206, (3S)-8-((3S,5R)-4-acryloyl-3,5-dimethylpiperazin-1-yl)-11-(5-chloro-2,4-difluorophenyl)-3-ethoxy-10-(trifluoromethyl)-3,4-dihydro-2H,6H-[1,4]thiazepino[2,3,4-ij]quinazolin-6-one] | 92
20 | C=CC(=O)N1[C@H](C)CN(c2nc(=O)n3c4c(c(-c5ccc(F)cn5)c(C(F)(F)F)cc24)SC[C@@H](OC)C3)C[C@@H]1C [Example 1207, (S)-8-((3S,5R)-4-acryloyl-3,5-dimethylpiperazin-1-yl)-11-(5-fluoropyridin-2-yl)-3-methoxy-10-(trifluoromethyl)-3,4-dihydro-2H,6H-[1,4]thiazepino[2,3,4-ij]quinazolin-6-one] | 95
21 | C=CC(=O)N1[C@H](C)CN(c2nc(=O)n3c4c(c(-c5nc(C(F)(F)F)cs5)c(C(F)(F)F)cc24)SC[C@@H](OC)C3)C[C@@H]1C [Example 1208, (S)-8-((3S,5R)-4-acryloyl-3,5-dimethylpiperazin-1-yl)-3-methoxy-10-(trifluoromethyl)-11-(4-(trifluoromethyl)thiazol-2-yl)-3,4-dihydro-2H,6H-[1,4]thiazepino[2,3,4-ij]quinazolin-6-one] | 95
22 | C=CC(=O)N1[C@H](C)CN(c2nc(=O)n3c4c(c(-c5cc(C)c(F)cn5)c(C(F)(F)F)cc24)SC[C@@H](OC)C3)C[C@@H]1C [Example 1209, (S)-8-((3S,5R)-4-acryloyl-3,5-dimethylpiperazin-1-yl)-11-(5-fluoro-4-methylpyridin-2-yl)-3-methoxy-10-(trifluoromethyl)-3,4-dihydro-2H,6H-[1,4]thiazepino[2,3,4-ij]quinazolin-6-one] | 96
